We go through five molecules from US11666661B2, “Methods and compounds for targeted autophagy” (THE REGENTS OF THE UNIVERSITY OF CALIFORNIA, priority 2018, dated 2023).

Holding throughout (assay type): binding
Test [1] concerns the target LC3A (C17) (Homo sapiens, UniProt Q9H492). Put plainly: gel-based ABPP screen of cysteine-reactive covalent ligands against IA-alkyne labeling of LC3A. The following applies: for hit that displaced IA-alkyne probe labeling of C17 on LC3A (loss of in-gel fluorescence): pure LC3A protein. From the text:
The critical part of this platform was to first develop a small-molecule recruiter for an autophagy adapter. We performed chemoproteomics-enabled covalent ligand discovery against the autophagy adapter LC3A, an important autophagy protein involved in substrate recognition, to discover an LC3A-recruiter, which can be combined with a protein targeting ligand via a linker to enable targeted protein autophagy of undruggable targets. […] While the NETS-ester probe appeared to label multiple sites on LC3A, the IA-alkyne probe apparently labeled one site, consistent with only one cysteine within LC3A-C17. Across the LC3 proteins, LC3A is the only protein that bears one cysteine. We next screened our cysteine-reactive covalent ligand library against iodoacetamide-alkyne (IA-alkyne) labeling of C17 on LC3A, and looked for hits that displaced probe-labeling resulting in loss of fluorescence by gel. Through this effort, we identified several cysteine-reactive acrylamide hits, including TRH 1-65, TRH 1-68, TRH 1-170, TRH 1-171, YP 1-44, CC 1-42, CC 1-48, EN2, EN7, EN35, and EN40 (FIGS. 5A-5D). These small-molecule recruiters or analogs of these chemical scaffolds that also bind to LC3A C17 can now be appended to linkers and protein targeting ligands to send specific protein cargo, and associated cellular contents, compartments, cells, or organelles off for targeted protein autophagy and lysososomal degradation. […] Examples of compounds that can be appended onto an autophagy adapter recruiter is JQ1, an inhibitor of bromodomain-containing BRD4 protein (an epigenetic regulator implicated in numerous human cancers). JQ1 can be appended to a linker, and an LC3A recruiter EN7 to degrade BRD4 in cells (FIGS. 7A-7C). Protein autophagy degrader can also be used to broadly recognize misfolded proteins and protein aggregates by conjugating thioflavin T, a general aggregate-protein recognizing compound, to a linker and EN7 to send these toxic protein aggregates and misfolded proteins to the autophagosome for lysosomal degradation (FIG. 8).

The target in test [2] is LC3A (Homo sapiens, UniProt Q9H492). Kind of test: Gel-based ABPP analysis against LC3A. To be noted: IA-alkyne probe. As to the method: FIGS. 5A-5D. Covalent ligand screen against LC3A. Gel-based ABPP screen of cysteine-reactive ligand library against IA-alkyne labeling of LC3A. Cysteine-reactive covalent ligands were pre-incubated with LC3A pure protein (50 microM) for 30 min at room temperature prior to IA-alkyne labeling of the protein (10 microM) for 30 min at room temperature. Proteins were run on SDS/PAGE and in-gel fluorescence was analyzed.

Test [3] concerns the target p62/SQSTM1 protein (Homo sapiens, UniProt Q13501). Put plainly: MS/MS of direct adduct on a peptide derived from p62/SQSTM1. An excerpt:
FIG. 14. MS/MS data corresponding to the direct adduct of EN96 on a peptide derived from p62/SQSTM1.

The target in test [4] is SQSTM1 (p62) (Homo sapiens, UniProt Q13501). Kind of test: gel-based ABPP cysteine-reactive covalent ligand screen against SQSTM1 (p62). To be noted: FIGS. 10A-10B. From the text: We have performed a cysteine-reactive covalent ligand screen against the autophagy adapter protein SQSTM1 (p62) using gel-based activity-based protein profiling (ABPP) approaches. We have identified several hit compounds that targeted a cysteine on SQSTM1 (FIGS. 10A-10B). […] To test whether we can use this potential SQSTM1 recruiter EN96 in a TADT platform, we synthesized BMF-1-64, which links EN96 to a BRD4 inhibitor JQ1, to determine whether we could degrade BRD4 in a proteasome-independent manner (FIG. 11).
SQSTM1 (p62), sequence (Q13501 whole entry): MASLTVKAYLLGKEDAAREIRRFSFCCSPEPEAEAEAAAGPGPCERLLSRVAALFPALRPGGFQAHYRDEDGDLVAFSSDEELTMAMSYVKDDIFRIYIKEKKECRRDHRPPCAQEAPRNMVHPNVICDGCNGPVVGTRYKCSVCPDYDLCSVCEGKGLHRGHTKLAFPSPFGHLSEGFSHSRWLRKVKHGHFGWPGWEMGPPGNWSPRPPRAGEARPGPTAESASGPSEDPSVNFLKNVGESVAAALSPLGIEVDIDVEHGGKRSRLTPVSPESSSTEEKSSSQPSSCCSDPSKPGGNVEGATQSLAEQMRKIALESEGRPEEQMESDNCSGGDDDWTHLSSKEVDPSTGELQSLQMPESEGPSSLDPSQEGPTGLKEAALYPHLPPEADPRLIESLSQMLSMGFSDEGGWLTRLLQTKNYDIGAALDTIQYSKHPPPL

p62/SQSTM1 protein, sequence (Q13501 whole entry): as above

`C=CC(=O)NCc1ccc(C(=O)N2CCC(c3nc4ccccc4s3)CC2)cc1` [EN2]: in test [1], the “hit that displaced IA-alkyne probe labeling of C17 on LC3A (loss of in-gel fluorescence)” value is recorded as “hits”.

With `C=CC(=O)N=C1N=C2C=CC(I)=CN2Cc2ccccc21` [EN7], the “targeting of C17 of LC3A, lowest concentration” value in test [2] was no less than 1 µM. Besides, in test [1] (FIG. 6), the “concentration down to which the compound binds LC3A” value is no less than 1 µM. The “hit that displaced IA-alkyne probe labeling of C17 on LC3A (loss of in-gel fluorescence)” value in test [1] is on record as “hits”. Consider `C=CC(=O)NC(c1ccco1)c1ccccc1OC` (centres unmarked) [EN35], for which, in test [1], the “hit that displaced IA-alkyne probe labeling of C17 on LC3A (loss of in-gel fluorescence)” value is recorded as “hits”. Still for that read-out and setting: with `C=CC(=O)N1CCC(C)C(c2ccco2)C1` (centres unmarked) [EN40] the entry was “hits”. With `C=CCOc1ccccc1CN(C(=O)CCl)c1ccc2c(c1)OCO2` [EN96], the “cysteine of p62/SQSTM1 modified” value in test [3] is listed as “reacts with C113”. Further, in test [4], the “potency ranking among covalent ligand hits against SQSTM1” value was “most potent covalent ligand against SQSTM1”.
